The values below come from patent US11219636B2, “Compositions and methods for treating cancer” (priority 2015, dated 2022).

Data set [1] concerns HCT116 cells.
Data set [2] deals with p53. In words: p53 transcription activity by GFP reporter in HCT116 cells transfected with RGC-mazE-IRES-GFP plasmid. Format: cell-based, human.
Protocol: In order to test the ability of p53 to bind to its responsive element and stimulate transcription, HCT116 cells were transfected with RGC-mazE-IRES-GFP plasmid. Since p53 is degraded in un-activated cells, the present inventors used Quercetin, a ubiquitous bioactive plant flavonoid that is able to induce p53 phosphorylation, stabilization and total p53 protein accumulation. Another widely used p53 inducer is the antimetabolite agent 5-FU. P53 transcription activity was evaluated by measuring the expression of the downstream reporter gene, GFP.
Data set [3] deals with p53 target genes. In words: Transcription of p53 target genes, Western blot and semi-quantitative PCR. The class given is cell-based, human. To be noted: 50 μM, 24 hours, HCT116 p53 WT cells. As to the method:
FIGS. 14A-C are Western blot analyses of p53 (FIG. 14A), p21 (FIG. 14B) and Tubulin (FIG. 14C) of HCT116 cells after treatment with 5FU. HCT116 cells were treated with 50 μM 5FU for 24 hours. Then, total cell lysate was prepared and subjected to Western blot analysis for p53 (FIG. 14A) and p21 (FIG. 14B) analysis. Tubulin (FIG. 14C) was used as a loading control and in the analyses of both proteins for normalization.
FIGS. 15A-B depict mRNA levels of various transcripts following treatment of HCT116 cells with 5FU. HCT116 cells were treated with 50 μM 5FU for 24 hours. Then, RNA was prepared and used as a template for cDNA and semi-quantitative PCR was performed for the following transcripts: p21, Bax, Noxa, Puma, MDM2, 14-3-3o, CD95, Btg2, GADD45, and Survivin. The graph represents the quantification of mRNA levels performed using the primers listed in Table 2 in the EXAMPLES section which follows.
Further validation of endogenous p53 activation led the present inventors to test other canonical target genes. 5-FU (50 μM) was added to HCT116 p53 WT cells for 24 hours. Total cell lysate was prepared and subjected into Western blot analysis and at the same time RNA was prepared and used as a template for cDNA and semi-quantitative PCR was performed. […] In particular a tight correlation between p21 and p53 protein levels (FIGS. 14A-C).

For `O=c1[nH]cc(F)c(=O)[nH]1` [5-FU], the cell toxicity entry in data set [1] (even very high doses (data not shown)) is on record as “no toxicity”. The GFP expression entry in data set [2] (10 μM, compared with Quercetin) is “significantly higher expression levels of GFP”. For the same molecule, in data set [3], the “mRNA and protein of p53 target genes” value is recorded as “up regulation”.

`O=c1c(O)c(-c2ccc(O)c(O)c2)oc2cc(O)cc(O)c12` [Quercetin]: the “cell toxicity (cell death)” value in data set [1] (transfected HCT116 cells) was determined as 60%. In addition, the “increase of GFP expression” value in data set [2] (50 μM) is “about 10 folds”.
